The source of these data is patent publication US10689339B2, “Pyrrolidine derivatives” (Hoffmann-La Roche Inc., priority 2016, dated 2020).

Chain of human Cat S (P25774 115-331): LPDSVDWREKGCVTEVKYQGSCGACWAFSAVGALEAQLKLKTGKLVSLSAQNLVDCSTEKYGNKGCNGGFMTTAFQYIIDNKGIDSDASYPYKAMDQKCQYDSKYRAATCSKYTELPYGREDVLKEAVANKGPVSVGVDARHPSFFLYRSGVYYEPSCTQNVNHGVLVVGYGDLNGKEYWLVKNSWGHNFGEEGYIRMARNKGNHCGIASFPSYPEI

In this experiment the target is human Cat S (Homo sapiens (Human), UniProt P25774). Put plainly: Cathepsin enzyme inhibition assay (fluorogenic peptide substrate Z-Val-Val-Arg-AMC). It counts as biochemical. The note with it: enzyme 1 nM, substrate 20 μM, pH 6.5. In outline:
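Enzymes at 1 nM in 100 mM potassium phosphate pH 6.5, 5 mM EDTA, 0.001% Triton X-100, 5 mM DTT; reaction started with 20 µM Z-Val-Val-Arg-AMC after enzyme–compound mixing.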
In the case of `Cc1nnn(-c2ccc(S(=O)(=O)[C@@H]3C[C@@H](C(=O)NC4(C#N)CC4)N(C(=O)C4(C(F)(F)F)CC4)C3)c(C(F)(F)F)c2)n1` [Example 57, (2S,4R)-4-[4-(5-Methyl-tetrazol-2-yl)-2-trifluoromethyl-benzenesulfonyl]-1-(1-trifluoromethyl-cyclopropanecarbonyl)-pyrrolidine-2-carboxylic acid (1-cyano-cyclopropyl)-amide], the concentration for half-maximal inhibition (IC50) – broadly, the concentration needed to halve the response being measured – turned out to be 564 pM.
Then `N#CC1(NC(=O)[C@@H]2C[C@@H](S(=O)(=O)c3ccc(-c4c[nH]nc4C(F)(F)F)cc3C(F)(F)F)CN2C(=O)C2(C(F)(F)F)CC2)CC1` [Example 58, (2S,4R)-1-(1-Trifluoromethyl-cyclopropanecarbonyl)-4-[2-trifluoromethyl-4-(3-trifluoromethyl-1Hpyrazol-4-yl)-benzenesulfonyl]-pyrrolidine-2-carboxylic acid (1-cyano-cyclopropyl)-amide], with 2420 pM; and `Cc1cc(-c2ccccc2CO)ccc1S(=O)(=O)[C@@H]1C[C@@H](C(=O)NC2(C#N)CC2)N(C(=O)C2(C(F)(F)F)CC2)C1` [Example 59, (2S,4R)—N-(1-cyanocyclopropyl)-4-(2′-(hydroxymethyl)-3-methylbiphenyl-4-ylsulfonyl)-1-(1-(trifluoromethyl)cyclopropanecarbonyl)pyrrolidine-2-carboxamide], with 943 pM.
The molecule `Cc1nc(C)c(-c2ccc(S(=O)(=O)[C@@H]3C[C@@H](C(=O)NC4(C#N)CC4)N(C(=O)C4(C(F)(F)F)CC4)C3)c(C)c2)s1` [Example 60, (2S,4R)—N-(1-cyanocyclopropyl)-4-(4-(2,4-dimethylthiazol-5-yl)-2-methylphenylsulfonyl)-1-(1-(trifluoromethyl)cyclopropanecarbonyl)pyrrolidine-2-carboxamide] returned a half-maximal inhibitory concentration (IC50) of 614 pM. Compared with the last molecule, the IC50 is about 1.5-fold lower.
On to `Cc1ncc(-c2ccc(S(=O)(=O)[C@@H]3C[C@@H](C(=O)NC4(C#N)CC4)N(C(=O)C4(C(F)(F)F)CC4)C3)c(C)c2)s1` [Example 61, (2S,4R)—N-(1-cyanocyclopropyl)-4-(2-methyl-4-(2-methylthiazol-5-yl)phenylsulfonyl)-1-(1-(trifluoromethyl)cyclopropanecarbonyl)pyrrolidine-2-carboxamide], for which it took 613 pM to reach half-maximal inhibition (IC50).
In the case of `COc1ncc(-c2ccc(S(=O)(=O)[C@@H]3C[C@@H](C(=O)NC4(C#N)CC4)N(C(=O)C4(C(F)(F)F)CC4)C3)c(C)c2)cn1` [Example 62, (2S,4R)—N-(1-cyanocyclopropyl)-4-(4-(2-methoxypyrimidin-5-yl)-2-methylphenylsulfonyl)-1-(1-(trifluoromethyl)cyclopropanecarbonyl)pyrrolidine-2-carboxamide] it was 592 pM; in that of `Cc1ncc(-c2ccc(S(=O)(=O)[C@@H]3C[C@@H](C(=O)NC4(C#N)CC4)N(C(=O)C4(C(F)(F)F)CC4)C3)c(C(F)(F)F)c2)s1` [Example 63, (2S,4R)-4-[4-(2-Methyl-thiazol-5-yl)-2-trifluoromethyl-benzenesulfonyl]-1-(1-trifluoromethyl-cyclopropanecarbonyl)-pyrrolidine-2-carboxylic acid (1-cyano-cyclopropyl)-amide], 585 pM.
The molecule `Cc1cc(-c2c(C)noc2C)ccc1S(=O)(=O)[C@@H]1C[C@@H](C(=O)NC2(C#N)CC2)N(C(=O)C2(C(F)(F)F)CC2)C1` [Example 64, (2S,4R)—N-(1-cyanocyclopropyl)-4-(4-(3,5-dimethylisoxazol-4-yl)-2-methylphenylsulfonyl)-1-(1-(trifluoromethyl)cyclopropanecarbonyl)pyrrolidine-2-carboxamide] came in with a 50% inhibitory concentration (IC50) of 650 pM. The IC50 values of the last two molecules are within 1.5-fold of each other.
Take `Cc1cc(-n2cnc(Cl)n2)ccc1S(=O)(=O)[C@@H]1C[C@@H](C(=O)NC2(C#N)CC2)N(C(=O)C2(C(F)(F)F)CC2)C1` [Example 66, (2S,4R)-4-(4-(3-chloro-1H-1,2,4-triazol-1-yl)-2-methylphenylsulfonyl)-N-(1-cyanocyclopropyl)-1-(1-(trifluoromethyl)cyclopropanecarbonyl)pyrrolidine-2-carboxamide]: the IC50 is 223000 pM. This IC50 lies about 340-fold higher than the previous one.
The molecule `Cc1cc(-n2cnc(Cl)n2)ccc1S(=O)(=O)[C@@H]1C[C@H](C(=O)NC2(C#N)CC2)N(C(=O)C2(C(F)(F)F)CC2)C1` [Example 67, (2R,4R)-4-(4-(3-chloro-1H-1,2,4-triazol-1-yl)-2-methylphenylsulfonyl)-N-(1-cyanocyclopropyl)-1-(1-(trifluoromethyl)cyclopropanecarbonyl)pyrrolidine-2-carboxamide] came in with an IC50 of 542000 pM.
Then `Cn1cc(-c2ccc(S(=O)(=O)[C@@H]3C[C@@H](C(=O)NC4(C#N)CC4)N(C(=O)C4(C(F)(F)F)CC4)C3)c(C(F)(F)F)c2)c(C(F)(F)F)n1` [Example 68, (2S,4R)-4-[4-(1-Methyl-3-trifluoromethyl-1Hpyrazol-4-yl)-2-trifluoromethyl-benzenesulfonyl]-1-(1-trifluoromethyl-cyclopropanecarbonyl)-pyrrolidine-2-carboxylic acid (1-cyano-cyclopropyl)-amide], with 829 pM; and `N#CC1(NC(=O)[C@@H]2C[C@@H](S(=O)(=O)c3ccc(-n4cnc(Cl)n4)cc3)CN2C(=O)C2(C(F)(F)F)CC2)CC1` [Example 69, (2S,4R)-4-(4-(3-chloro-1H-1,2,4-triazol-1-yl)phenylsulfonyl)-N-(1-cyanocyclopropyl)-1-(1-(trifluoromethyl)cyclopropanecarbonyl)pyrrolidine-2-carboxamide], with 497000 pM.
